Where a name gives a salt, the structure may show the parent alone. Read-outs that look alike come from different tables or passages of the source.
What was measured:
male albine Swiss mice [1] = experiment: Shock by cardiazol (M.M.S.); format: in vivo; conditions: for ED50: Mus musculus
Description: (§1) Materials and methods. The animals used to perform the pharmacological tests with the compounds of the invention have been, unless the contrary is explicitly indicated, male albine Swiss mice weighing 19-23 g; each animal has been used only once.
(§2) The compounds have been administered as hydrochlorides, under skin (0.1 ml/10 g) 30 minutes ante; for determining the LD50, the compounds have been administered by intraperitoneal route and were considered deaths occured in the 72 hours following the treatment.
(§3) As reference compounds there was used: ethosuximide injected under skin 30 minutes ante (before); Phenurone per os 60 minutes ante; phenobarbital sodium salt under skin 30 minutes ante, trimethadione under skin 30 minutes ante; primidone per os 6 hours ante and Mephenesin under skin 30 minutes ante.
Under such conditions the results obtained with the reference compounds are in good agreement with those reported in the art for the same compounds (E. A. Swinyard, W. C. Brown, L. S. Goodman --J. Pharmacol., 1952, 106, 3 19). Shock by cardiazol (M.M.S.) -- 38 mg/kg of cardiazol, in the form of a 0.38% aqueous solution, is quickly injected in the dorsal vein of the mouse's tail (L. S. Goodman, M. Singh Grewal, W. C. Brown, E. A. Swinyard -- J. Pharmacol. 1953, 108, 168). The animals are considered as protected when the extensor phase of the hind paws is eliminated during the tonic crisis.
(§4) The so-obtained data have been elaborated by calculating the ED50 and the LD50 according to Lichtfield-Wilcoxon's method (J. Pharmacol. 1949, 96, 99).

male albine Swiss mice [2] = experiment: Electroshock (M.E.S.); format: in vivo; conditions: for ED50: Mus musculus
Description: as §1, §2, §3
Electroshock (M.E.S.) -- The method adopted in making the electroshock is Cashin C.
as §4

Acute toxicity LD50 = conditions: mouse, in vivo, ip
Description: as §1, §2, §4

rat = experiment: Inhibition of calcium chloride induced cardiac arrhythmias in rats; format: in vivo; conditions: for minimal effective dose: read-out: active dose (complete inhibition of cardiac arrhythmias)
Description: The new compounds of the invention are deprived of MAO-inhibiting activity in live rats, both on the mithocondres of hepatic tissue and on the mithocondres of homogenatous of cerebral tissue, even if administered in doses of 100-200 mg/kg per os. […] In particular the activity in cardiac arrhythmias of N-pyrrolidinoacetyl-2,3-cis, trans-diphenylcyclopropylamine has been studied by experimentally inducing arrhythmias in rats by means of calcium chloride, and in dogs by means of adrenaline.
The experiments in rats have been performed as follows:
There was determined the inhibiting effect of N-pyrrolidine acetyl-2,3-cis,trans-diphenylcyclopropylamine hydrochloride on the cardiac arrhythmias arising within the 5 minutes following the calcium chloride administration in comparison with quinidine, procaine and propranolol.

dog = experiment: Protection from adrenaline induced cardiac arrhythmias in dogs; format: in vivo; conditions: 1 mg/kg intravenous
Description: The new compounds of the invention are deprived of MAO-inhibiting activity in live rats, both on the mithocondres of hepatic tissue and on the mithocondres of homogenatous of cerebral tissue, even if administered in doses of 100-200 mg/kg per os. As found also with other anticonvulsive drugs, the new compounds of the present invention are endowed with a good antiarrhythmic activity. In particular the activity in cardiac arrhythmias of N-pyrrolidinoacetyl-2,3-cis, trans-diphenylcyclopropylamine has been studied by experimentally inducing arrhythmias in rats by means of calcium chloride, and in dogs by means of adrenaline.
The experiments with dogs have been performed as follows:
The dog has been anesthetized with chloralose and then administered by intravenous injection with 30 γ/kg of adrenaline. The results were evaluated according to Somani and Lum B. K. B. (J. Pharmacol. Expt. Therap. 1965, 147, 194-202).

[3] = sc, 0.5 h, new compounds (Table 2), as hydrochlorides, under skin 30 minutes ante, cardiazol 38 mg/kg i.v., read-out: ED50 M.M.S.
[4] = sc, 0.5 h, new compounds (Table 2), as hydrochlorides, under skin 30 minutes ante, read-out: ED50 M.E.S.
[5] = sc, 0.5 h, read-out: M.M.S. ED50
[6] = sc, 0.5 h, reference compounds (Table 1), under skin 30 minutes ante, cardiazol 38 mg/kg i.v., read-out: M.M.S. ED50

Compound: CC(C)N(CC(=O)NC1[C@H](c2ccccc2)[C@H]1c1ccccc1)C(C)C (relative stereo) [N-diisopropylaminoacetyl-2,3-cis,trans-diphenylcyclopropylamine]
- ED50 (male albine Swiss mice [1]; [3]): 87 mg/kg
- ED50 (male albine Swiss mice [2]; [4]): 135 mg/kg

Compound: CCNCC(=O)NC1[C@H](c2ccccc2)[C@H]1c1ccccc1 (relative stereo) [cis-trans, R1 = H, R2 = C2 H5, N-ethylaminoacetyl-2,3-cis,trans-diphenylcyclopropylamine hydrochloride]
- ED50 (male albine Swiss mice [1]; [3]): 13 mg/kg
- ED50 (male albine Swiss mice [2]; [4]): 16.5 mg/kg
- LD50 at 72 h (Acute toxicity LD50): 85 mg/kg

Compound: C=C[C@H]1C[N@@]2CC[C@H]1C[C@@H]2[C@@H](O)c1ccnc2ccc(OC)cc12 [quinidine]
- minimal effective dose (rat; Rattus norvegicus): 2.5 mg/kg

Compound: CCCCN(CCCC)CC(=O)NC1[C@H](c2ccccc2)[C@H]1c1ccccc1 (relative stereo) [cis-trans, R1 = n-C4 H9, R2 = n-C4 H9, N-di-n-butylaminoacetyl-2,3-cis,trans-diphenylcyclopropylamine]
- ED50 (male albine Swiss mice [1]; [3]): > 250 mg/kg
- ED50 (male albine Swiss mice [2]; [4]): > 250 mg/kg

Compound: CCC1(c2ccccc2)C(=O)NC(=O)NC1=O [Phenobarbital sodium salt, reference compound]
- ED50 (male albine Swiss mice [1]; [5]): 4.5 mg/kg
- ED50 (male albine Swiss mice [2]; sc, 0.5 h, read-out: M.E.S. ED50): 35 mg/kg

Compound: CN(C)CC(=O)NC1[C@H](c2ccccc2)[C@H]1c1ccccc1 (relative stereo) [cis-trans, R1 = CH3, R2 = CH3, N-dimethylaminoacetyl-2,3-cis,trans-diphenylcyclopropylamine]
- ED50 (male albine Swiss mice [1]; [3]): 16 mg/kg
- ED50 (male albine Swiss mice [2]; [4]): 16.5 mg/kg

Compound: O=C(CN1CCCC1)NC1[C@H](c2ccccc2)[C@H]1c1ccccc1 (relative stereo) [N-pyrrolidinoacetyl-2,3-cis,trans-diphenylcyclopropylamine hydrochloride]
- protection from adrenaline arrhythmia (dog; 2 minutes ante adrenaline (30 γ/kg i.v.)): completely protected
- duration of effect (dog; adrenaline arrhythmia): 60 min
- minimal effective dose (rat; calcium chloride 80 mg/kg i.v., anesthetized rat, drug 90 seconds before calcium chloride): 2 mg/kg
- duration of activity (rat; rat, calcium chloride arrhythmia, dose 2 mg/kg): about 20 minutes

Compound: Cc1ccccc1OCC(O)CO (stereo not drawn) [Mephenesin, reference compound]
- ED50 (male albine Swiss mice [1]; [6]): 180 mg/kg

Compound: CC(C)NCC(O)COc1cccc2ccccc12 (stereo not drawn) [propranolol]
- minimal effective dose (rat; Rattus norvegicus): 1 mg/kg

Compound: O=C(CN1CCCC1)NC1[C@H](c2ccccc2)[C@H]1c1ccccc1 (relative stereo) [cis-trans, N-pyrrolidinoacetyl-2,3-cis,trans-diphenylcyclopropylamine]
- ED50 (male albine Swiss mice [1]; [3]): 5.6 mg/kg
- ED50 (male albine Swiss mice [2]; [4]): 9 mg/kg
- LD50 at 72 h (Acute toxicity LD50): 67.5 mg/kg

Compound: CCC1(C)CC(=O)NC1=O (stereo not drawn) [Ethosuximide, reference compound]
- ED50 (male albine Swiss mice [1]; [6]): 50 mg/kg

Compound: CCN(CC)CC(=O)NC1[C@H](c2ccccc2)[C@H]1c1ccccc1 (relative stereo) [cis-trans, R1 = C2 H5, R2 = C2 H5, N-dietylaminoacetyl-2,3-cis-trans-diphenylcyclopropylamine]
- ED50 (male albine Swiss mice [1]; [3]): 12.5 mg/kg
- ED50 (male albine Swiss mice [2]; [4]): 14.2 mg/kg
- LD50 at 72 h (Acute toxicity LD50): 92.5 mg/kg

Compound: CCCN(CCC)CC(=O)NC1[C@H](c2ccccc2)[C@H]1c1ccccc1 (relative stereo) [cis-trans, R1 = n-C3 H7, R2 = n-C3 H7, di-n-propylaminoacetyl-2,3-cis, trans-diphenylcyclopropylamine hydrochloride]
- ED50 (male albine Swiss mice [1]; [3]): 175 mg/kg
- ED50 (male albine Swiss mice [2]; [4]): > 100 mg/kg

Compound: O=C(CN1CCCC1)N[C@@H]1[C@@H](c2ccccc2)[C@H]1c1ccccc1 [trans-trans, N-pyrrolidinoacetyl-2,3-trans,trans-diphenylcyclopropylamine hydrochloride]
- ED50 (male albine Swiss mice [2]; [4]): 87 mg/kg
- LD50 at 72 h (Acute toxicity LD50): 266 mg/kg

Compound: 1.1-dimethyl-3-phenyl-urea [Phenurone, reference compound]
- M.M.S. ED50 (male albine Swiss mice [1]; Phenurone (Table 1), per os 60 minutes ante, cardiazol 38 mg/kg i.v.): 50 mg/kg
- M.E.S. ED50 (male albine Swiss mice [2]; Phenurone (Table 1), per os 60 minutes ante): 115 mg/kg

Compound: O=C1NC(=O)C(c2ccccc2)(c2ccccc2)N1 [Phenitoine Sodium salt, reference compound]
- ED50 (male albine Swiss mice [1]; iv, Phenitoine sodium salt (Table 1), route and time not stated, cardiazol 38 mg/kg i.v., read-out: M.M.S. ED50): 7.1 mg/kg
- ED50 (male albine Swiss mice [2]; Phenitoine sodium salt (Table 1), route and time not stated, read-out: M.E.S. ED50): 15 mg/kg

Compound: CCN(CC)CCOC(=O)c1ccc(N)cc1 [procaine]
- minimal effective dose (rat; Rattus norvegicus): 5 mg/kg

Compound: CCC1(c2ccccc2)C(=O)NCNC1=O [Primidone, reference compound]
- ED50 (male albine Swiss mice [1]; po, Primidone (Table 1), per os 6 hours ante, cardiazol 38 mg/kg i.v., read-out: M.M.S. ED50): 5.2 mg/kg

Compound: O=C(CN1CCCCC1)NC1[C@H](c2ccccc2)[C@H]1c1ccccc1 (relative stereo) [cis-trans, N-piperidinoacetyl-2,3-cis,trans-diphenylcyclopropylamine hydrochloride]
- ED50 (male albine Swiss mice [1]; [3]): 6 mg/kg
- ED50 (male albine Swiss mice [2]; [4]): 14.5 mg/kg
- LD50 at 72 h (Acute toxicity LD50): 88 mg/kg

Compound: CN1C(=O)OC(C)(C)C1=O [Trimethadione, reference compound]
- ED50 (male albine Swiss mice [1]; [5]): 175 mg/kg

Compound: CNCC(=O)NC1[C@H](c2ccccc2)[C@H]1c1ccccc1 (relative stereo) [cis-trans, R1 = H, R2 = CH3, N-methylaminoacetyl-2,3-cis,trans-diphenyl-cylcopropylamine hydrochloride]
- ED50 (male albine Swiss mice [1]; [3]): 30 mg/kg
- ED50 (male albine Swiss mice [2]; [4]): 25.5 mg/kg
- LD50 at 72 h (Acute toxicity LD50): 112 mg/kg

Reference: patent US3954778A, “Aminoacetyl derivatives of 2,3-diphenyl cyclopropyl amine” (priority 1970, dated 1976)
